Legend:
Experiment in all cases: relative viability (nuclei count vs DMSO), 5 days (fraction); higher = more cells survive
KIN001-266 = compound: CCN1CCC(CC1)N2C=C(N=N2)CNC3=CC4=C(C(=CN=C4C(=C3)Cl)C#N)NC5=CC(=C(C=C5)F)Cl [KIN001-266]
Procedure, shortened: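 In 1536-well plates, lung cancer cell lines rested overnight at 37 °C before five library-drug doses (not always all listed), √10 apart, were pinned onto vehicle-anchored plates. Nuclei were counted with MetaXpress from 4× Hoechst images taken after 5 days without medium change. Viability compares treated-well with vehicle-well nuclei as a median over plates, and plates needed control CV below 25% plus at least one doubling to pass.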

KIN001-266 + Palbociclib = compound: CCN1CCC(CC1)N2C=C(N=N2)CNC3=CC4=C(C(=CN=C4C(=C3)Cl)C#N)NC5=CC(=C(C=C5)F)Cl [KIN001-266] + CC(=O)c1c(C)c2cnc(Nc3ccc(N4CCNCC4)cn3)nc2n(C2CCCC2)c1=O [Palbociclib] (partner 0.5 µM)
Procedure, shortened: (§1)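 Medians of duplicate plates are given as relative viability. That measure is the nuclei count in treated wells divided by the count in vehicle wells. Counts were taken on 4× images of lung cancer cell lines in 1536-well plates, 5 days after pin-tool dosing the day after seeding with one drug alone or a fixed anchor-drug dose plus five library-drug doses (not always all listed) in √10 steps.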

KIN001-266 + Foretinib = compound: CCN1CCC(CC1)N2C=C(N=N2)CNC3=CC4=C(C(=CN=C4C(=C3)Cl)C#N)NC5=CC(=C(C=C5)F)Cl [KIN001-266] + COc1cc2c(Oc3ccc(NC(=O)C4(C(=O)Nc5ccc(F)cc5)CC4)cc3F)ccnc2cc1OCCCN1CCOCC1 [Foretinib] (partner 0.25 µM)
Procedure, shortened: as §1

KIN001-266 + OSI-027 = compound: CCN1CCC(CC1)N2C=C(N=N2)CNC3=CC4=C(C(=CN=C4C(=C3)Cl)C#N)NC5=CC(=C(C=C5)F)Cl [KIN001-266] + COc1cccc2cc(-c3nc([C@H]4CC[C@H](C(=O)O)CC4)n4ncnc(N)c34)[nH]c12 [OSI-027] (partner 0.5 µM)
Procedure, shortened: as §1

Cell Line	relative viability (KIN001-266; 0.08 µM)	relative viability (KIN001-266; 0.253 µM)	relative viability (KIN001-266; 0.8 µM)	relative viability (KIN001-266; 2.53 µM)	relative viability (KIN001-266; 8 µM)	relative viability (KIN001-266 + Palbociclib; first compound 0.08 µM)	relative viability (KIN001-266 + Palbociclib; first compound 0.253 µM)	relative viability (KIN001-266 + Palbociclib; first compound 0.8 µM)	relative viability (KIN001-266 + Palbociclib; first compound 2.53 µM)	relative viability (KIN001-266 + Palbociclib; first compound 8 µM)	relative viability (KIN001-266 + Foretinib; first compound 0.08 µM)	relative viability (KIN001-266 + Foretinib; first compound 0.253 µM)	relative viability (KIN001-266 + Foretinib; first compound 0.8 µM)	relative viability (KIN001-266 + Foretinib; first compound 2.53 µM)	relative viability (KIN001-266 + Foretinib; first compound 8 µM)	relative viability (KIN001-266 + OSI-027; first compound 0.08 µM)	relative viability (KIN001-266 + OSI-027; first compound 0.253 µM)	relative viability (KIN001-266 + OSI-027; first compound 0.8 µM)	relative viability (KIN001-266 + OSI-027; first compound 2.53 µM)	relative viability (KIN001-266 + OSI-027; first compound 8 µM)
ChaGo-K-1	1.04	1.03	0.92	0.929	0.886	0.949	1.01	0.851	0.84	0.428	0.904	0.989	0.756	0.793	0.871	0.657	0.551	0.553	0.647	0.459
EBC-1	1.04	1.02	0.954	0.988	0.704						0.0963	0.1	0.105	0.128	0.117					
EKVX	0.989	1	0.841	0.868	0.941	0.402	0.406	0.403	0.391	0.367	0.858	0.744	0.642	0.781	0.624	0.702	0.706	0.683	0.685	0.52
EMC-BAC-2	1.07	1.21	0.98	1.07	0.989	0.54	0.581	0.523	0.562	0.561	1.13	1.09	0.972	1.03	1	0.456	0.448	0.373	0.419	0.365
EPLC-272H	1.08	1	0.915	0.893	0.686	0.348	0.354	0.275	0.307	0.312	0.777	0.763	0.728	0.636	0.208	0.306	0.303	0.242	0.249	0.264
H3255	1.01	1.06	0.96	0.96	0.78	0.336	0.3	0.307	0.311	0.282	0.801	0.862	0.797	0.957	0.725	0.555	0.618	0.52	0.542	0.606
HARA	0.959	1.04	0.937	1.06	0.747	0.237	0.27	0.261	0.237	0.18	0.814	0.884	0.878	0.858	0.821	0.559	0.644	0.395	0.501	0.276
HCC-15	1.02	1.03	0.875	0.868	0.689	0.707	0.806	0.593	0.608	0.509	0.913	0.964	0.886	0.817	0.707	0.71	0.699	0.63	0.524	0.518
HCC-44	0.967	0.994	0.983	0.968	1.08	1.06	0.973	0.95	0.949	1.03						0.5	0.664	0.605	0.441	0.593

From the supplement of paper PMC10307832
